Activity calls are given as the source filed them. The calls are words filed in the database; no cut-off is given here.
Columns and labels:
HL-60 [1] = test: Downregulation of Bcl-2 mRNA expression in human HL60 cells by RT-PCR analysis; assay type: functional, cell-based
Nucleic Acid [2] = test: Binding affinity to single-strand oligonucleotide MutPu39 assessed as formation of G-quadruplex complex after 3 mins by PCR stop assay; assay type: nucleic-acid assay
Nucleic Acid [3] = test: Binding affinity to Bcl-2 promoter duplex DNA by surface plasmon resonance assay; assay type: nucleic-acid assay
HL-60 [4] = test: Induction of apoptosis in human HL60 cells assessed as cleavage of 17 kDa procaspase-3 at 0.02 to 0.2 uM after 4 days by Western blot analysis; assay type: functional, cell-based
HL-60 [5] = test: Downregulation of Bcl-2 protein expression in human HL60 cells at 0.02 to 0.2 uM after 4 days by Western blot analysis; assay type: functional, cell-based
Nucleic Acid [6] = test: Stabilization of single-strand oligonucleotide MidG4 assessed as melting temperature by FRET assay; assay type: nucleic-acid assay
HL-60 [7] = test: Cell cycle arrest in human HL60 cells assessed as accumulation at sub-G1 phase at 0.2 uM after 4 days by propidium iodide staining-based flow cytometry; assay type: functional
Nucleic Acid [8] = test: Binding affinity to Bcl-2 promoter quadruplex DNA by surface plasmon resonance assay; assay type: nucleic-acid assay
HL-60 [9] = test: Induction of apoptosis in human HL60 cells assessed as PARP cleavage at 0.2 uM after 4 days by Western blot analysis; assay type: functional, cell-based
Nucleic Acid [10] = test: Binding affinity to human single-strand oligonucleotide MutPu39 transfected in human HL60 cells assessed as Bcl-2 transcriptional activation at 0.4 uM after 48 hrs by luciferase reporter gene assay relative to untreated MutPu39-construct control; assay type: cell-based; details: HL-60
HL-60 [11] = test: Downregulation of Bcl-2 mRNA expression in human HL60 cells at 0.2 uM by RT-PCR analysis; assay type: functional
HL-60 [12] = test: Cell cycle arrest in human HL60 cells assessed as accumulation at sub-G1 phase at 0.05 uM after 4 days by propidium iodide staining-based flow cytometry; assay type: functional
Nucleic Acid [13] = test: Binding affinity to human single-strand oligonucleotide MutPu39 transfected in human HL60 cells assessed as reduction of Bcl-2 transcriptional activation at 0.4 uM after 48 hrs by luciferase reporter gene assay; assay type: cell-based; details: HL-60
HL-60 [14] = test: Cell cycle arrest in human HL60 cells assessed as accumulation at sub-G1 phase at 0.1 uM after 4 days by propidium iodide staining-based flow cytometry; assay type: functional
HL-60 [15] = test: Antiproliferative activity against human HL60 cells assessed as viable cells at 0.2 uM after 4 days by trypan blue exclusion assay; assay type: functional; details: HL-60, 96 h, read-out: Activity
HL-60 [16] = test: Antiproliferative activity against human HL60 cells at 0.02 to 0.2 uM after 4 days by trypan blue exclusion assay; assay type: functional, cell-based
HL-60 [17] = test: Induction of apoptosis in human HL60 cells assessed as cleavage of 35 kDa procaspase-3 at 0.02 to 0.2 uM after 4 days by Western blot analysis; assay type: functional, cell-based
Nucleic Acid [18] = test: Binding affinity to human single-strand oligonucleotide Pu39 transfected in human HL60 cells assessed as Bcl-2 transcriptional activation at 0.4 uM after 48 hrs by luciferase reporter gene assay relative to untreated Pu39-construct control; assay type: cell-based; details: HL-60
Nucleic Acid [19] = test: Binding affinity to human single-strand oligonucleotide MutPu39 transfected in human HL60 cells assessed as Bcl-2 transcriptional activation at 0.4 uM after 48 hrs by luciferase reporter gene assay relative to untreated Pu39-construct control; assay type: cell-based; details: HL-60
Nucleic Acid [20] = test: Binding affinity to single-strand oligonucleotide Pu39 assessed as formation of G-quadruplex complex after 3 mins by PCR stop assay; assay type: nucleic-acid assay
Nucleic Acid [21] = test: Binding affinity to human single-strand oligonucleotide Pu39 transfected in human HL60 cells assessed as reduction of Bcl-2 transcriptional activation at 0.4 uM after 48 hrs by luciferase reporter gene assay; assay type: cell-based; details: HL-60
HL-60 [22] = test: Cell cycle arrest in human HL60 cells assessed as accumulation at sub-G1 phase at 0.5 uM after 4 days by propidium iodide staining-based flow cytometry; assay type: functional
HL-60 [23] = test: Induction of apoptosis in human HL60 cells assessed as PARP cleavage at 1 uM after 4 days by Western blot analysis; assay type: functional, cell-based
HL-60 [24] = test: Cell cycle arrest in human HL60 cells assessed as accumulation at sub-G1 phase at 1 uM after 4 days by propidium iodide staining-based flow cytometry; assay type: functional
HL-60 [25] = test: Downregulation of Bcl-2 protein expression in human HL60 cells at 0.1 to 1 uM after 4 days by Western blot analysis; assay type: functional, cell-based
HL-60 [26] = test: Induction of apoptosis in human HL60 cells assessed as cleavage of 35 kDa procaspase-3 at 0.1 to 1 uM after 4 days by Western blot analysis; assay type: functional, cell-based
HL-60 [27] = test: Antiproliferative activity against human HL60 cells at 0.1 to 1 uM after 4 days by trypan blue exclusion assay; assay type: functional, cell-based
HL-60 [28] = test: Antiproliferative activity against human HL60 cells assessed as viable cells at 1 uM after 4 days by trypan blue exclusion assay; assay type: functional; details: HL-60, 96 h, read-out: Activity
HL-60 [29] = test: Induction of apoptosis in human HL60 cells assessed as cleavage of 17 kDa procaspase-3 at 0.1 to 1 uM after 4 days by Western blot analysis; assay type: functional, cell-based
Nucleic Acid [30] = test: Selectivity ratio of Kd for Bcl-2 promoter duplex DNA to Kd for Bcl-2 promoter quadruplex DNA; assay type: nucleic-acid assay
HL-60 [31] = test: Downregulation of Bcl-2 mRNA expression in human HL60 cells at 0.8 uM by RT-PCR analysis; assay type: functional

IC50 (Nucleic Acid [2])	Kd (Nucleic Acid [3])	Tm (Nucleic Acid [6])	Kd (Nucleic Acid [8])	IC50 (Nucleic Acid [20])	Selectivity ratio (Nucleic Acid [30])	Compound	Activity (HL-60 [1])	Activity (HL-60 [7])	Activity (Nucleic Acid [10])	inhibition (Nucleic Acid [13])	Activity (Nucleic Acid [18])	Activity (Nucleic Acid [19])	inhibition (Nucleic Acid [21])	other results
19700 nM	269 nM	76.9 °C	31.8 nM	1110 nM		CN(C)CCCNc1c2ccccc2[n+](C)c2c1[nH]c1ccc(F)cc12.[I-]	Dose-dependent effect	3.5%	74.6%	25%	51.4%	132%	50%	Activity (HL-60 [4]): inactive; Activity (HL-60 [5]): Active; Activity (HL-60 [9]): Active; Activity (HL-60 [11]): 50%; Activity (HL-60 [12]): 5%; Activity (HL-60 [14]): 23.8%; viability at 0.2 µM (HL-60 [15]): < 25%; Activity (HL-60 [16]): Active; Activity (HL-60 [17]): Active
> 100000 nM	482 nM	65.1 °C	167 nM	74400 nM	2.9	CN(C)CCCNc1c2ccccc2nc2c1[nH]c1ccc(F)cc12	Dose-dependent effect	3%	88.3%	12%	70.5%	156%	30%	Activity (HL-60 [22]): 6.1%; Activity (HL-60 [23]): Active; Activity (HL-60 [24]): 22.3%; Activity (HL-60 [25]): Active; Activity (HL-60 [26]): Active; Activity (HL-60 [27]): Active; viability at 1 µM (HL-60 [28]): < 25%; Activity (HL-60 [29]): inactive; Activity (HL-60 [31]): 50%
> 100000 nM	3380 nM	51.5 °C	1500 nM	> 100000 nM	2.3	OCCNc1c2ccccc2nc2c1[nH]c1ccccc12			92.6%		84.4%	163%		
